Entries after “also recorded” stand apart in the source; their conditions may differ. Read-outs that look alike come from different tables or passages of the source.
What was measured:
VSV New Jersey = assay: microbe, parasite or virus in culture; type: cell-based, Vesicular Stomatitis virus
NiV M-1999 = assay: microbe, parasite or virus in culture; type: cell-based, Nipah virus; conditions: Henipavirus nipahense, HeLa
EBOV minigenome = assay: cells; type: cell-based, Ebola virus
NiV minigenome = assay: cells; type: cell-based, Nipah virus
Filo (filoviruses) [1] = assay: organism not typed; type: cell-based; conditions: read-out: potency class (EC50)
Pneumo = assay: Potency by virus family (Fig. 2), Pneumo; type: cell-based; conditions: read-out: potency class (EC50)
Bunya = assay: Potency by virus family (Fig. 2), Bunya; type: cell-based; conditions: read-out: potency class (EC50)
Arena = assay: Potency by virus family (Fig. 2), Arena; type: cell-based; conditions: read-out: potency class (EC50)
Rhabdo = assay: Potency by virus family (Fig. 2), Rhabdo; type: cell-based; conditions: read-out: potency class (EC50)
MARV Rec. Bat371-Gluc [2] = test system: MARV Rec. Bat371-Gluc
HeV 1996 [3] = test system: HeV 1996
Filo (filoviruses) [4] = conditions: cited from earlier work
Corona (coronaviruses) = conditions: cited from earlier work
NiV B-2004 (Nipah virus) [5] = assay: in vitro; conditions: human
HeV 1996 (Hendra virus) [6] = assay: in vitro; conditions: human
[7] = test system: MuV IA 2006 (Mumps virus); assay: in vitro; conditions: human
[8] = test system: ANDV Chile 9717869 (Andes virus); assay: in vitro; conditions: human
[9] = test system: LASV Josiah (Lassa virus); assay: in vitro; conditions: human
[10] = test system: AHFV 200300001 (Alkhurma Hemorrhagic Fever virus); assay: in vitro; conditions: human
[11] = test system: KFDV P9605 (Kyasanur Forest Disease virus); assay: in vitro; conditions: human
[12] = test system: TBEV Hypr (Tick-borne Encephalitis virus); assay: in vitro; conditions: human
[13] = test system: OHFV Bogoluvovska (Omsk Hemorrhagic Fever virus); assay: in vitro; conditions: human
MARV Rec. Bat371-Gluc [14] = assay: organism not typed; conditions: Huh-7
[15] = test system: reporter and wild-type filo-, pneumo-, and paramyxoviruses; assay: organism not typed; conditions: read-out: EC50 values (range over viruses)
HeV 1996 [16] = assay: microbe, parasite or virus in culture; conditions: Henipavirus hendraense, HeLa
KFDV P9605 = assay: microbe, parasite or virus in culture; conditions: Kyasanur Forest disease virus, A549
[17] = Cell viability assay (CellTiter-Glo 2.0), Huh7; conditions: human, uninfected Huh7 cells
[18] = Cell viability assay (CellTiter-Glo 2.0), A549; conditions: human, uninfected A549 cells
[19] = Cell viability assay (CellTiter-Glo 2.0), HMVEC-L; conditions: human
[20] = Cell viability assay (CellTiter-Glo 2.0), macrophages; conditions: human, uninfected peripheral blood macrophages (Mϕ)
hMPV Rec. CAN97-83-GFP = assay: microbe, parasite or virus in culture; type: cell-based; conditions: human metapneumovirus, Vero
EBOV wt Makona = assay: microbe, parasite or virus in culture; type: cell-based, Ebola virus; conditions: Zaire ebolavirus, Huh-7
[21] = test system: recombinant reporter-expressing NiV, EBOV, and Marburg viruses (MARV); assay: microbe, parasite or virus in culture; type: cell-based; conditions: Zaire ebolavirus, read-out: EC50 values (range over viruses)
MV EZ vaccine [22] = test system: MV EZ vaccine
NiV B-2004 (Nipah virus) [23] = assay: in vitro; conditions: human; remark: listed apart in the source
HeV 1996 (Hendra virus) [24] = assay: in vitro; conditions: human; remark: listed apart in the source
[25] = test system: MV EZ vaccine (Measles virus); assay: in vitro; conditions: human
MV EZ vaccine [26] = assay: microbe, parasite or virus in culture; conditions: Measles morbillivirus, HeLa
[27] = Cell viability assay (CellTiter-Glo 2.0), 293T/17; conditions: human, uninfected 293T/17 cells
[28] = Vesicular stomatitis virus, HeLa

## CCC(CC)COC(=O)[C@H](C)N[P@](=O)(OC[C@H]1O[C@@](C#N)(c2ccc3c(N)ncnn23)[C@H](O)[C@@H]1O)Oc1ccccc1 [GS-5734]
VSV New Jersey
  EC50: not inhibited; also recorded: No inhibition
VSV New Jersey; [28]
  EC50: > 10 µM
NiV M-1999
  EC50: 65.5 ± 16 nM
EBOV minigenome
  EC50: sub-micromolar range
EBOV minigenome; Zaire ebolavirus, Huh-7, 48 h
  EC50: 420 nM
NiV minigenome
  EC50: sub-micromolar range
NiV minigenome; Henipavirus nipahense, HeLa, 48 h
  EC50: 49 nM
Filo (filoviruses) [1]
  EC50: < 100 nM
Pneumo
  EC50: < 100 nM
Bunya
  EC50: > 4 µM
Arena
  EC50: > 4 µM
Rhabdo
  EC50: > 4 µM
EBOV Rec. Mayinga-Gluc
  EC50: 21 nM
MARV Rec. Bat371-Gluc [2]
  EC50: 19 nM
MARV Rec. Bat371-GFP
  EC50: 14 nM
NiV B-2004
  EC50: 32 nM
HeV 1996 [3]
  EC50: 55 nM
hPIV3 Rec. JS-GFP
  EC50: 18 nM
LASV Josiah
  EC50: 4.5 µM
AHFV 200300001
  EC50: 4.2 µM
Filo (filoviruses) [4]
  activity in cell-based antiviral assays: shown activity
Corona (coronaviruses)
  activity in cell-based antiviral assays: shown activity
NiV B-2004 (Nipah virus) [5]
  selectivity ratio: 259
HeV 1996 (Hendra virus) [6]
  selectivity ratio: 150
[7]
  selectivity ratio: 10
[8]
  selectivity ratio: 1.4
[9]
  selectivity ratio: 2.2
[10]
  selectivity ratio: 2.4
[11]
  selectivity ratio: 5.6
[12]
  selectivity ratio: 4.8
[13]
  selectivity ratio: 8.3
MARV Rec. Bat371-Gluc [14]
  EC50: 19.3 nM
  EC90: 52 nM
[15]
  EC50: 3 to 790 nM
HeV 1996 [16]
  EC50: 54.8 ± 1.3 nM
  EC90: 117 nM
KFDV P9605
  EC90: 3.4 µM
[17]
  CC50 at 72 h: > 10 µM
[18]
  CC50 at 72 h: > 10 µM
[19]
  CC50 at 72 h: 8.5 µM
[20]
  CC50 at 72 h: 2000 nM

## N#C[C@@]1(c2ccc3c(N)ncnn23)O[C@H](CO)[C@@H](O)[C@H]1O [Nuc]
hMPV Rec. CAN97-83-GFP
  EC50: 730 nM
  EC90: 1700 nM
VSV New Jersey
  EC50: little to no antiviral activity; also recorded: No inhibition
VSV New Jersey; [28]
  EC50: > 50 µM
EBOV wt Makona
  EC50: 1610 ± 420 nM
[21]
  EC50: 1000 to 3000 nM
EBOV Rec. Mayinga-GFP
  EC50: 1600 nM
MARV Rec. Bat371-GFP
  EC50: 1900 nM
hPIV3 Rec. JS-GFP
  EC50: 510 nM
MV EZ vaccine [22]
  EC50: 2000 nM
NiV B-2004 (Nipah virus) [23]
  selectivity ratio: 60
HeV 1996 (Hendra virus) [24]
  selectivity ratio: 50
[25]
  selectivity ratio: 25
[7]
  selectivity ratio: 5
MV EZ vaccine [26]
  EC50: 2010 nM
  EC90: 5.1 µM
KFDV P9605
  EC50: 46.3 µM
  EC90: > 350 µM
[17]
  CC50 at 72 h: > 50 µM
[27]
  CC50 at 72 h: > 50 µM

From paper PMC5338263, “GS-5734 and its parent nucleoside analog inhibit Filo-, Pneumo-, and Paramyxoviruses” (Scientific Reports, 2017)
